Assay results reported in patent US20100130736A1, “METHODS OF CREATING AN INDEX” (priority 2008, published 2010).

Tested on: quiescent A431 cells
Experiment: Epic DMR agonist mode (primary profile) in quiescent A431 cells
Type: cell-based, human
Text: Epic® wavelength interrogation system (Corning Inc., Corning, N.Y.) was used for whole cell sensing. This system consists of a temperature-control unit, an optical detection unit, and an on-board liquid handling unit with robotics. The detection unit is centered on integrated fiber optics, and enables kinetic measures of cellular responses with a time interval of ±15 sec.
For biosensor cellular assays, molecule solutions were made by diluting the stored concentrated solutions with the HBSS (1× Hanks balanced salt solution, plus 20 mM Hepes, pH 7.1), and transferred into a 384 well polypropylene molecule storage plate to prepare a molecule source plate. Both molecule and marker source plates were made separately when a two-step assay was performed. In parallel, the cells were washed twice with the HBSS and maintained in 30 μl of the HBSS to prepare a cell assay plate. Both the cell assay plate and the molecule and marker source plate(s) were then incubated in the hotel of the reader system. After ˜1 hr of incubation the baseline wavelengths of all biosensors in the cell assay microplate were recorded and normalized to zero. Afterwards, a 2 to 10 minute continuous recording was carried out to establish a baseline, and to ensure that the cells reached a steady state. Cellular responses were then triggered by pipetting 10 μl of the marker solutions into the cell assay plate using the on-board liquid handler.
A DMR index was generated for four ligand molecules. Quiescent A431 and proliferating A549 cells were separately exposed to the ligand molecules for about 1 hr to generate their primary profiles, followed by stimulation with each marker at a fixed concentration (as mentioned in FIGS. 7 and 8) for another 1 hr or so to generate secondary profiles of the molecule against the panels of markers in both types of cells. Next, one or more specific DMR parameters were chosen as a readout for plotting the DMR index of the molecule. For the pinacidil DMR response in A549, the amplitude of the N-DMR (i.e., the amplitude 30 min after stimulation) was chosen. […]

EGF: natural agonist for endogenous EGF receptor in A431
EC80 to trigger the DMR signal (fully quiescent A431 cells): ~32 nM
DMR signal triggered (fully quiescent A431 cells, EGF ~32 nM, three phases P-DMR, N-DMR, RP-DMR, FIG. 4): distinct and robust DMR signal
DMR response as a function of dose (quiescent A431 cells, data not shown): dose-dependent response
